# Reference: patent US20160120915A1, “METHODS FOR MANIPULATING IMMUNE RESPONSES BY ALTERING MICROBIOTA” (NEW YORK UNIVERSITY, priority 2013, published 2016)
# Counter-ions that a name gives are not always drawn.
# Key:
# [1] = test system: small intestinal lamina propria T-helper cells; test: NOD: flow cytometry of Treg and Th17 cells in spleen and SI-LP; format: in vivo, NOD mice; conditions: for percent of SI-LP Th17 (CD4+RORγT+) cells / percent of SI-LP Treg (CD4+ FOXP3+) cells: 6-week old male NOD mice, vs controls
# Description: After euthanasia of the mice by CO2 asphyxiation followed by cervical dislocation, the small intestines were dissected and immediately placed in cold calcium and magnesium-free DPBS, followed by removal of the mesenteric fat and Peyer's patches. The intestines were opened longitudinally and contents were removed by washing thoroughly with cold DPBS. The intestines were then cut into 2 cm pieces and treated with 10 ml 1 mM DTT/PBS, shaken at RT for 10 minutes to remove contaminating intraepithelial lymphocytes. Subsequently, the intestinal tissue was treated two times with 30 mM EDTA and 10 mM HEPES in PBS to remove epithelial cells. To isolate lamina propria lymphocytes, intestinal tissue was digested for 1.5 hours at 37° C. in digestion mix (0.5 mg/ml Collagenase/Dispase (Roche), 150 μg /ml DNase 1 (Sigma) in complete RPMI. Cells were passed through a 100 μm diameter nylon mesh filter (BD Bioscience). For further purification of leukocytes, intestinal cell suspensions were resuspended in 40% Percoll, under-layered with 80% Percoll (GE Healthcare Life Sciences) and centrifuged at 2,200 rpm for 25 minutes at room temperature. The leukocytes were collected at the interphase of the 40% 80% discontinuous Percoll gradient, then washed and re-suspended in DPBS for staining.
# Cells were incubated with blue Live/DEAD fixable dye (Invitrogen) for 10 minutes at 4° C. to identify live cells. Intestinal leukocytes were phenotyped using the following antibodies: CD3-APC-Cy™7 (BD Biosciences), CD4− PE-Alexa Fluor 610 (Invitrogen), CD8− V500 (BD Biosciences), RORγt-PE (eBioscience), Foxp3-PE-Cy7 (eBioscience). Cells were first incubated with surface antibodies (each at 1:50 in FACS buffer) along with FC block (Anti-Mouse CD16/CD32, eBioscience) at 1:200 for 30 minutes at 4° C. Then the cells were fixed and permeabilized with Fix/Perm (eBioscience) and subsequently incubated with the nuclear antibodies in perm/wash buffer for 30 minutes at 4° C. (eBioscience).
# All cells were acquired on a LSRII (BD Biosciences) and analyzed using FlowJo software (version 9.3.2; Tree Star Inc.).
# Flow cytometry was performed on splenic and SI-LP cells from 6-week old male and female NOD mice. CD3 and CD4 surface stains and a live/dead stain were used to gate on live T-helper cells. Nuclear staining for FOXP3 and RORγT was performed to identify Treg and Th17 cells, respectively. By qPCR, SFB was below detectable limits in fecal specimens collected at 3 weeks and 6 weeks of age from all of the mice used in the above analysis. The range for SFB qPCR assay was from 10^2 to 10^6 copies of SFB. […] PAT decreased the percent of SI-LP Treg and Th17 cells in male, but not female NOD mice. C=controls, S=STAT, P=PAT. Statistical analysis was performed on each tissue separately, using the Kruskal-Wallis test followed by the Dunn's multiple comparison test, ** p≦0.01. […] This work provides evidence that PAT changes T-cell populations in the NOD mice that are developing T1D and insulitis earlier.
# [2] = test system: intestinal microbial community; test: NOD: 16S rRNA V4 sequencing of fecal, cecal and ileal microbiota; format: in vivo, NOD mice; conditions: for fecal microbial community structure (PCoA, unweighted unifrac): all time points
# Description: Fecal pellets were collected at least weekly from weaning at 3 weeks of age until the study termination at 31 weeks of age, and stored at −20° C. until processing. DNA was extracted from fecal pellets using the PowerLyzer™ PowerSoil® DNA Isolation Kit (MoBio, Carlsbad Calif.) and stored at −20° C. Cecal and ileal samples were collected upon necropsy at 6 weeks of age, upon diabetes development, or at the termination of the experiment at […] of age, and extracted using the PowerLyzer™ PowerSoil® DNA Isolation Kit.
# Fecal samples collected at 3, 6, 10, and 13 weeks of age, and cecal and ileal samples collected at 6 weeks of age were used for sequencing. The V4 region of the 16S rRNA gene was amplified using universal primers 515 forward primer (5′ GTGCCAGCMGCCGCGGTAA 3′ SEQ ID NO: 54) and 806 reverse primer (5′ […] 3′ SEQ ID NO: 55) [Escherichia coli strain 83972 sequence (greengenes accession no. prokM-SA_id:470367] linked to a 12 base Goley barcode for multiplexing (Caporaso et al., The ISME Journal 2012; 6:1621-4. Caporaso et al., Proc. Natl. Acad. Sci. USA, 2011; 108 Suppl 1:4516-22). Sequencing was performed on the Miseq platform with a 15% PhiX spike.
# The sequences were analyzed using the macqiime 1.7.0 software (Caporaso et al., Nature Methods 2010; 7:335-6). Sequences were aligned using the Ribosomal Database Project (RDP) classifier (Wang et al., Applied and Environmental Microbiology 2007; 73:5261-7). Taxonomy was assigned based on the GreenGenes May 2013. For alpha diversity measurements, observed number of species and phylogenic distance (PD) were calculated. For beta diversity measurements, unweighted unifrac distances were calculated (Lozupone C, Knight R., Applied and Environmental Microbiology 2005; 71:8228-35). The unweighted unifrac distances were used for principal coordinates analysis (PCoA), and visualized using the KiNG software. Further sequencing analysis and correlations were performed using the phyloseq and ellipse packages in R.
Structure (SMILES),decrease of percent of SI-LP Treg and Th17 cells ([1]; 6-week old female NOD mice),percent of SI-LP Th17 (CD4+RORγT+) cells [1],percent of SI-LP Treg (CD4+ FOXP3+) cells [1],"cecal and ileal microbial composition ([2]; 6-week old NOD mice, Adonis test)",Bacteroides ([2]; PAT samples after the first antibiotic pulse),"Verrucomicrobia (phylum level) ([2]; PAT samples after the first antibiotic pulse, vs control)",Akkermansia muciniphila (species level) ([2]; PAT samples starting at 3 weeks),"Phylogenic diversity (PD) ([2]; all sample times, all sample types, males and females, vs controls)","OTU richness ([2]; all sample times, all sample types, males and females, vs controls, FDR p<0.05)","fecal microbial community structure (PCoA, unweighted unifrac) ([2]; males and females)",relative abundance of Bifidobacterium genus ([2]; females and males),"relative abundance of three detectable Bifidobacterium species (B. animalis, B. adolescentis, B. pseudolongum) ([2]; females and males)",relative abundance of unnamed Bifidobacterium species ([2]; females and males),"intragroup beta diversity (unweighted Unifrac distance) ([2]; male NOD mice, vs controls)","Akkermansia muciniphila (species level) ([2]; STAT male cecal and ileal samples, vs controls (less than PAT))",prevalence of Bifidobacterium sp. ([2]; STAT-antibiotic-treated NOD mice vs controls),bloom in Verrucomicrobia ([2]; cecal and ileal samples from male STAT mice),abundance of all 3 named Bifidobacterium species ([2]; females),"OTU richness ([2]; females, only at 3 weeks of age, vs controls)","OTU richness ([2]; males, at 3 and 6 weeks of age, vs controls)"
"CC[C@H]1OC(=O)C[C@@H](O)[C@H](C)[C@@H](O[C@@H]2O[C@H](C)[C@@H](O[C@H]3C[C@@](C)(O)[C@@H](O)[C@H](C)O3)[C@H](N(C)C)[C@H]2O)[C@@H](CC=O)C[C@@H](C)C(=O)/C=C/C(C)=C/[C@@H]1CO[C@@H]1O[C@H](C)[C@@H](O)[C@@H](OC)[C@H]1OC [Tylosin, Tylosin tartrate]",not,decreased,decreased,significantly alters,decrease,large bloom,large bloom,lower,lower,cluster distinctly from controls,decreases,decreases,decreases,lower,–,–,–,–,–,–
"CC1(C)S[C@@H]2[C@H](NC(=O)COc3ccccc3)C(=O)N2[C@H]1C(=O)[O-].[K+] [STAT, penicillin VK]",–,intermediate,intermediate,–,–,–,–,–,–,essentially overlap,–,–,–,–,more,not different,greater than in controls but less than in PAT,increased abundance,significantly lower,significantly lower
